Test results reported in patent US20110098556A1, “Computer-Based Method And System For Imaging-Based Dynamic Function Evaluation Of An Organ” (priority 2008, published 2011).
“And” between values parts separate entries of the source, which are not always exact repeats. Equal values may be shown once.

Columns and labels:
[1] = test system: liver; assay: Gd-EOB-DTPA-enhanced DHCE-MRI in patients with primary biliary cirrhosis (PBC); type: in vivo, human
Experimental: (§1) T1-weighted Gd-EOB-DTPA-enhanced DHCE-MRI was performed on 20 healthy volunteers, 10 men and 10 women, and on patients with an established diagnosis of PBC. Routine serum liver function tests were performed at inclusion in the study on the healthy volunteers, and for the patients it was recorded from the most recent visit documented in their clinical charts. The healthy volunteers had no history of hepato-biliary disease, previous hepato-biliary surgery or alcohol abuse. All subjects were asked to be fasting for at least four hours prior to the examination. For each patient, relevant clinical data was documented and together with the results from the liver function tests they were used to calculate the CPS, Mayo risk score and MELD score.
(§2) T1-weighted Gd-EOB-DTPA-enhanced DHCE-MRI was performed using a Philips Intera 1.5T scanner (Best, Holland), with a Philips four-channel SENSE body coil according to the protocol in Example 1. Deconvolutional analysis was performed using truncated singular value decomposition (TSVD). HEF and irBF were calculated as described above. […] The Mann-Whitney U-test was used for test of significance and the significance level was set to […]. All segments in every patient and controls yielded an observation and in the statistical analysis, all observations were regarded as independent observations, even if they originated from one individual. Thus, the study yielded 180 observations for each of the abovementioned parameters from the controls, and 108 observations from PBC patients.

[2] = in vivo; cited from earlier work
[3] = test system: liver; assay: T1-weighted Gd-EOB-DTPA-enhanced DHCE-MRI liver function test, healthy volunteers; type: in vivo, human; set-up: key to median HEF / HEF, mean / HEF, median / HEF, max / HEF: ratio of extrapolated hepatic retention curve to vascular peak of HE curve; settings: for median HEF: healthy volunteers; for HEF, mean / HEF, max / HEF, median: n=20 healthy volunteers
Experimental: Deconvoluted liver response curves were analyzed with respect to HEF and RBF. HEF was described by Brown et al using Tc-99-disofenin scintigraphy as a measurement of hepatic extraction efficiency, and could be understood as the percentage of tracer that would have been extracted if the tracer had been injected directly into the afferent blood supply of the liver without subsequent recirculation. […] The HE curve can be divided into the vascular phase and the hepatocyte retention phase, which describes the hepatic extraction. We calculated HEF using a monoexponential fit to the HE-curve data points from 420 to 1800 seconds after the time of injection of the tracer. The starting point at 420 seconds was chosen after visual inspection of the deconvoluted HE curves. The fitted curve, the hepatic retention curve (HRC, a mono-exponentially decaying fitted curve), is then extrapolated back to the time of the vascular peak value, and HEF is defined as the ratio between the extrapolated HRC curve and the vascular peak of the HE curve (also shown in FIG. 3),
RBF, giving a relative measurement of blood flow in the liver, is described as the initial peak value of the HE curve. RBF values were normalized to the segment with the highest RBF, i.e. the segment with the highest RBF was set to 100%.
The input function was defined by a region of interest (ROI) placed in the hilar part of the portal vein. Due to patient motion, the input function ROI was adjusted in each dynamic acquisition so the voxels represent portal vein blood. Liver response function curves were defined by placing three ROIs in each liver segment (I to VIII with segment IV divided into IVa and IVb). The relative enhancement over time of the voxels in the ROI was regarded as the parenchymal response function for that ROI. Data points were interpolated using equidistant spacing (60 s) over the 90-minute time period. […] Care was taken to as far as possible to exclude major blood vessels and visible bile ducts when the ROIs were placed. Segments were defined and nomenclature adhered to as proposed by Strasberg SM. Terminology of liver anatomy and liver resections: coming to grips with hepatic Babel. J Am Coll Surg 1997; 184(4):413-434, which is incorporated herein by reference in its entirety. However, other segmentations may be used in other embodiments.
HEF and RBF were calculated for each ROI both with TSVD and FA+tail using specific in-house software written in MATLAB® (Mathworks, […], USA). Thus, each ROI yielded two values for HEF and RBF respectively. For TSVD, a static truncation threshold was set at c=0.07. A cosine function from 0 to π/2 with the initial height of the last point of x(t) and y(t) was added for the DA performed with FA, and the length of the tail was set to be three times the length of the total sampling period of 90 minutes. […]
To arrive at an estimation of the model parameters, an iterative method was used. After assigning starting values to kij and f the impulse response function h(t) was estimated through Eq 10, and an output function yout(t) was calculated through yout(t)=h(t) ? x(t)+f·x(t), using the input function x(t) from the portal vein as an estimate for the blood pool signal in Equation 7. The response function y(t) on the other hand was measured in a ROI in the liver parenchyma, and the parameters kij and f were determined by iteratively minimizing the squared difference diff=(y(t)−yout(t))^2, see FIG. 17.
For some response curves either T10, or both T5 and T10, were beyond the last measured time point, and no value was set. Tmax, T5 and T10 were measured in seconds.
where g(t) is the fitted curve and the fitting parameters c2 and TU describe contrast uptake, while c1 and TE describe the liver contrast excretion. Both TE and TU were calculated in minutes.
T1-weighted Gd-EOB-DTPA-enhanced DHCE-MRI was performed on 20 healthy volunteers, 10 men and 10 women, ages ranging from 22 to 45 years. […]

[4] = test system: liver; assay: Gd-EOB-DTPA-enhanced MRI in patients with primary sclerosing cholangitis (PSC); type: in vivo, human; set-up: HEF: unit not given here
Experimental: as §1, with “MRI” for “DHCE-MRI”, “PSC.” for “PBC.”
as §2, with “MRI” for “DHCE-MRI”, “protocol as outlined” for “protocol”, “PSC” for “PBC”

[5] = individual PBC patient, median of 9 segmental values
[6] = median for PBC patients (n = 108)
[7] = median for healthy controls (n = 180)
[8] = individual PSC patient, median of 9 segmental values
[9] = median for PSC patients (segments n = 108)

CCOc1ccc(CC(CN(CCN(CC(=O)[O-])CC(=O)[O-])CC(=O)[O-])N(CC(=O)[O-])CC(=O)[O-])cc1.[Gd+3].[Na+].[Na+] (stereo not drawn) [Gd-EOB-DTPA, Gadolinium ethoxybenzyl diethylenetriaminepentaacetic acid]
T5 (time from Tmax to five percent decay) [1, 5]: 24.33 min and 18.17 min and 40.67 min and 33 min and 24.83 min and 21.67 min and 34 min and 24.67 min and 25.67 min and 13.5 min and 4 min and 15.7 min
T10 (time from Tmax to ten percent decay) [1, 5]: 30.5 min and 28 min and 38 min and 34 min and 50.5 min and 32.5 min and 48 min and 41 min and 41.33 min and 30 min and 15.7 min and 24 min
Tmax (time to maximum intensity) [1, 5]: 48.33 min and 35 min and 36.67 min and 66.67 min and 43.33 min and 60 min and 22.67 min and 40 min and 8 min and 3.33 min and 51.67 min
HEF ([1]; individual PBC patient, median of 9 segmental values, TSVD): 0.163 (2×) and 0.225 and 0.302 and 0.150 and 0.093 and 0.226 and 0.199 and 0.155 and 0.106 and 0.047 and 0.152
TE (excretion half-time) ([1]; individual PBC patient, median of 9 segments, bi-exponential fit): 3780 min and 1591 min and 4791 min and 6961 min and 4241 min and 1180 min and 8011 min and 2130 min and 2481 min and 1141 min and 2830 min and 1281 min
T5 [1, 6]: 1440 s
T10 [1, 6]: 1920 s
TE [1, 6]: 2850 min
Tmax [1, 6]: 41 min
HEF ([1]; median for PBC patients (n = 108 segments)): 0.161
fraction eliminated by renal excretion (glomerular filtration) [2]: 50%
hepatic clearance [2]: about 50%
signal intensity half-time (TE) ([3]; compared with total scan time): > 90 min
mean HEF ([3]; example 1, healthy volunteers): above 20%
hepatic extraction fraction (HEF) ([3]; example curve of FIG. 3, FA+tail): approximately 17%
median HEF ([3]; left hemiliver, FA+tail): 0.194
median HEF ([3]; left hemiliver, TSVD): 0.196
HEF ([3]; median for 20 healthy controls (n = 180 segments), TSVD): 0.201
T5 [3, 7]: 1600 s
T10 [3, 7]: 2295 s
Tmax [3, 7]: 33.33 min
HEF, mean ([3]; 180 segmental values, deconvolution by TSVD): 0.215
HEF, max ([3]; FA + tail): 0.440
HEF, median ([3]; FA + tail): 0.210
HEF, max ([3]; TSVD): 0.436
HEF, median ([3]; TSVD): 0.208
HEF, mean ([3]; deconvolution by FA + tail): 0.217
median HEF ([3]; right hemiliver, FA+tail): 0.224
median HEF ([3]; right hemiliver, TSVD): 0.218
T5 [4, 8]: 1720 s and 980 s and 1620 s and 940 s and 1420 s and 1380 s and 1170 s and 1400 s and 1250 s and 1500 s and 1340 s and 2140 s
T10 [4, 8]: 1980 s and 1560 s and 1950 s and 1720 s and 2645 s and 1840 s and 2340 s and 2600 s and 2050 s and 2490 s and 2460 s and 3540 s
Tmax [4, 8]: 56.67 min and 41.67 min and 46.67 min and 27 min and 31 min and 30 min and 48 min and 21.33 min and 36.67 min and 28 min and 63.33 min
HEF ([4]; individual PSC patient, median of 9 segmental values, TSVD): 0.158 and 0.213 and 0.221 and 0.307 and 0.140 and 0.220 and 0.159 and 0.136 (2×) and 0.123 and 0.174 and 0.240
TE ([4]; individual PSC patient, median of 9 segments, bi-exponential fit): 1427 min and 110 min and 184 min and 102 min and 244 min and 211 min and 251 min and 203 min and 147 min and 128 min and 341 min and 452 min
HEF [4, 9]: 0.176
T5 [4, 9]: 1340 s
T10 [4, 9]: 2050 s
TE [4, 9]: 204 min
Tmax [4, 9]: 37.67 min
